Where two headings read alike, the source gives them in different places.
What was measured:
CSF-1R = target: T1, CSF-1R (Homo sapiens, UniProt P07333); test: CSF-1R in vitro biochemical kinase study (ADP-Glo assay)
T1 construct: 3.95 nM of CSF-1R, 500 μM of ATP

[1] = system: M-NFS-60 mouse myeloid leukemia lymphocytes; test: CSF-1R cell proliferation study (Cell Titer Glo); format: cell-based; details: Lymphocyte, 72 h;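 further: M-CSF-driven proliferation, viable cells quantified as ATP by luminescence, compounds tested as 3-fold serial dilutions, values from four-parameter curve fits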
[2] = read-out: Cytological experiment CS1-1R Absolute IC50 (nM)
[3] = read-out: Cytological experiment CSF-1R IC50 (nM)
[4] = M-NFS-60 cells, M-CSF, 3 days, CTG, * = average of multiple tests, read-out: Cytological experiment CSF-1R IC50
[5] = M-NFS-60 cells, M-CSF, 3 days, CTG, absolute half maximal inhibition, * = average of multiple tests, read-out: Cytological experiment CS1-1R Absolute IC50

T1 sequence (P07333 20-972): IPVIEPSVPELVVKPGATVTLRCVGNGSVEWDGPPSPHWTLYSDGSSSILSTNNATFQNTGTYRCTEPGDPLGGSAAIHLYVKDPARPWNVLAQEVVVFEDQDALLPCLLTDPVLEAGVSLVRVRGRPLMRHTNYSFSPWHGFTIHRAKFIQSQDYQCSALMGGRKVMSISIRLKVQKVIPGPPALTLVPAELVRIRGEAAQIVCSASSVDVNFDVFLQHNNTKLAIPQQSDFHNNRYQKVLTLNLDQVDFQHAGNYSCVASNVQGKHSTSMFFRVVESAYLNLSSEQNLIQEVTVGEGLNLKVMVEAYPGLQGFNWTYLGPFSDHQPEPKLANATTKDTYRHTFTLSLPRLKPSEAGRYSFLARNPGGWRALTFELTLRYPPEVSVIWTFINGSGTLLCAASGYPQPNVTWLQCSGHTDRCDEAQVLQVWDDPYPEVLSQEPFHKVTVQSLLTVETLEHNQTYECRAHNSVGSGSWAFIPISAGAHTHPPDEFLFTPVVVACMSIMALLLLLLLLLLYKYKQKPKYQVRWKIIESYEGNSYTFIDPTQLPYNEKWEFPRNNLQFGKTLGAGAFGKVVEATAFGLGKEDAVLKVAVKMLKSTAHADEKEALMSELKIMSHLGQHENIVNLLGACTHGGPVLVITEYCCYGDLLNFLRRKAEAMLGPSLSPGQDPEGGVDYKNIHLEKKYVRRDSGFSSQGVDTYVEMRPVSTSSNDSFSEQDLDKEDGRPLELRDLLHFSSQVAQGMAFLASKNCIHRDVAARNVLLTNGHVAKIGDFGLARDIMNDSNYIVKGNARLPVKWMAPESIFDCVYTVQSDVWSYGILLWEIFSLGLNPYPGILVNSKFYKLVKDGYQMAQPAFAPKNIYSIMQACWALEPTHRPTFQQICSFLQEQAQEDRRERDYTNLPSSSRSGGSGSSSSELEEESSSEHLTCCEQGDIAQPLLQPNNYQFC

Row | SMILES | IC50 (CSF-1R) [nM] | IC50 [1, 2] [nM] | IC50 [1, 3] [nM] | IC50 [1, 4] [nM] | IC50 [1, 5] [nM]
1 | CNC(=O)c1cc(Oc2ccc(NC(=O)N3CCC(C)(C)C3=O)nc2C)ccn1 [Example 27, 4-((6-(3,3-dimethyl-2-oxopyrrolidine-1-carboxamido)-2-methylpyridin-3-yl)oxy)-N-methylpicolinamide] | 135 | 441 | 487 |  | 
2 | Cc1nc(NC(=O)N2CCC(C)(C)C2=O)ccc1Oc1ccnc(-c2cnn(C3COC3)c2)c1 [Example 18, 3,3-dimethyl-N-(6-methyl-5-((2-(1-(oxetan-3-yl)-1H-pyrazol-4-yl)pyridin-4-yl)oxy)pyridin-2-yl)-2-oxopyrrolidine-1-carboxamide] |  |  |  | 125 | 114
3 | Cc1nc(NC(=O)N2CCC(C)(C)C2=O)ccc1Oc1ccnc(-c2cnn(C3CCN(C)C3)c2)c1 (stereo not shown) [Example 17] | 101 |  |  |  | 
4 | Cc1nc(NC(=O)N2CCC(C)C2=O)ccc1Oc1ccnc(-c2cnn(C)c2)c1 (stereo not shown) [Example 32, 3-methyl-N-(6-methyl-5-((2-(1-methyl-1H-pyrazol-4-yl)pyridin-4-yl)oxy)pyridin-2-yl)-2-oxopyrrolidine-1-carboxamide] | 324 | 782 | 667 |  | 
5 | Cc1nc(NC(=O)N2CCC(C)(C)C2=O)ccc1Oc1ccnc(-c2cnn(C)c2)n1 [Example 22, 3,3-dimethyl-N-(6-methyl-5-((2-(1-methyl-1H-pyrazol-4-yl)pyrimidin-4-yl)oxy)pyridin-2-yl)-2-oxopyrrolidine-1-carboxamide] | 249 | 500 | 500 |  | 
6 | Cc1cc(-c2cc(Oc3ccc(NC(=O)N4CCC(C)(C)C4=O)nc3C)ccn2)ccn1 [Example 4, 3,3-dimethyl-N-(6-methyl-5-((2′-methyl-[2,4′-bipyridin]-4-yl)oxy)pyridin-2-yl)-2-oxopyrrolidine-1-carboxamide] | 42.9 | 213 | 216 |  | 
7 | Cc1nc(NC(=O)N2CCC(C)(C)C2=O)ccc1Oc1ccnc(NC(=O)N2CCN(C)CC2)c1 [Example 24, N-(4-((6-(3,3-dimethyl-2-oxopyrrolidine-1-carboxamido)-2-methylpyridin-3-yl)oxy)pyridin-2-yl)-4-methylpiperazine-1-carboxamide] | 56.6 | 164 | 221 |  | 
8 | COCCC1(C)CCN(C(=O)Nc2ccc(Oc3ccnc(-c4cnn(C)c4)c3)c(C)n2)C1=O (stereo not shown) [Example 37, 3-(2-methoxyethyl)-3-methyl-N-(6-methyl-5-((2-(1-methyl-1H-pyrazol-4-yl)pyridine-4-yl)oxy)pyridin-2-yl)-2-oxopyrrolidine-1-carboxamide] | 207 | 140 | 141 |  | 
9 | Cc1nc(NC(=O)N2CCC(C)(C)C2=O)ccc1Oc1ccnc(NC(=O)C2CC2)c1 [Example 26, N-(5-((2-(cyclopropane-carboxamido)pyridin-4-yl)oxy)-6-methylpyridin-2-yl)-3,3-dimethyl-2-oxopyrrolidine-1-carboxamide] | 75.2 | 157 | 161 |  | 
10 | Cc1nc(NC(=O)N2CCC(C)(C)C2=O)ccc1Oc1ccnc(-c2cnn(C(C)C)c2)c1 [Example 13, N-(5-((2-(1-isopropyl-1H-pyrazol-4-yl)pyridin-4-yl)oxy)-6-methylpyridin-2-yl)-3,3-dimethyl-2-oxopyrrolidine-1-carboxamide] | 99.7 | 245 | 263 |  | 
11 | Cc1nc(NC(=O)N2CCCC2=O)ccc1Oc1ccnc(-c2cnn(C)c2)c1 [Example 38, N-(6-methyl-5-((2-(1-methyl-1H-pyrazol-4-yl)pyridin-4-yl)oxy)pyridin-2-yl)-2-oxopyrrolidine-1-carboxamide] | 1470 |  |  |  | 
12 | CC(=O)Nc1cc(Oc2ccc(NC(=O)N3CCC(C)(C)C3=O)nc2C)ccn1 [Example 23, N-(5-((2-acetylamidopyridin-4-yl)oxy)-6-methylpyridin-2-yl)-3,3-dimethyl-2-oxopyrrolidine-1-carboxamide] | 83 | 384 | 620 |  | 

Results, then the compound that gave them:

Row | IC50 (CSF-1R) [nM] | IC50 [1, 2] [nM] | IC50 [1, 3] [nM] | IC50 [1, 4] [nM] | IC50 [1, 5] [nM] | SMILES
13 | 2280 | > 2000 | > 2000 |  |  | CNc1cc(Oc2ccc(NC(=O)N3CCC(C)(C)C3=O)nc2C)ccn1 [Example 42, 3,3-dimethyl-N-(6-methyl-5-((2-(methylamino)pyridin-4-yl)oxy)pyridin-2-yl)-2-oxopyrrolidine-1-carboxamide]
14 | 176 | 647 | 644 |  |  | Cc1nc(NC(=O)N2CCC(C)(C)C2=O)ccc1Oc1ccnc(-c2cn(C)cn2)c1 [Example 19, 3,3-dimethyl-N-(6-methyl-5-((2-(1-methyl-1H-imidazol-4-yl)pyridin-4-yl)oxy)pyridin-2-yl)-2-oxopyrrolidine-1-carboxamide]
15 | 57.9 | 110 | 148 |  |  | Cc1nc(NC(=O)N2CCC(C)(C)C2=O)ccc1Oc1ccnc(-c2cnn(CCN3CCOCC3)c2)c1 [Example 8, 3,3-dimethyl-N-(6-methyl-5-((2-(1-(2-morpholinoethyl)-1H-pyrazol-4-yl)pyridin-4-yl)oxy)pyridin-2-yl)-2-oxopyrrolidine-1-carboxamide]
16 | 80.2 | 193 | 216 |  |  | Cc1nc(NC(=O)N2CCC(C)(C)C2=O)ccc1Oc1ccnc(-c2cn[nH]c2)c1 [Example 9, N-(5-((2-(1H-pyrazol-4-yl)pyridin-4-yl)oxy)-6-methylpyridin-2-yl)-3,3-dimethyl-2-oxopyrrolidine-1-carboxamide]
17 | 54.7 | 334 | 454 |  |  | Cc1ncc(-c2cc(Oc3ccc(NC(=O)N4CCC(C)(C)C4=O)nc3C)ccn2)s1 [Example 5, 3,3-dimethyl-N-(6-methyl-5-((2-(2-methylthiazol-5-yl)pyridin-4-yl)oxy)pyridin-2-yl)-2-oxopyrrolidine-1-carboxamide]
18 | 20.2 | 35 | 48.3 |  |  | [2H]C([2H])([2H])n1cc(-c2cc(Oc3ccc(NC(=O)N4CCCC(C)(C)C4=O)nc3C)ccn2)cn1 [Example 39, 3,3-dimethyl-N-(6-methyl-5-((2-(1-(methyl-d3)-1H-pyrazol-4-yl)pyridin-4-yl)oxy)pyridin-2-yl)-2-oxopiperidine-1-carboxamide]
19 | 229 | 687 | 667 |  |  | CCc1nc(NC(=O)N2CCC(C)(C)C2=O)ccc1Oc1ccnc(-c2cnn(C)c2)c1 [Example 3, N-(6-ethyl-5-((2-(1-methyl-1H-pyrazol-4-yl)pyridin-4-yl)oxy)pyridin-2-yl)-3,3-dimethyl-2-oxopyrrolidine-1-carboxamide]
20 |  |  |  | 500 | 727 | Cc1nc(NC(=O)N2CCC(C)(OCc3ccccc3)C2=O)ccc1Oc1ccnc(-c2cnn(C)c2)c1 (stereo not shown) [Example 36, 3-(benzyloxy)-3-methyl-N-(6-methyl-5-((2-(1-methyl-1H-pyrazol-4-yl)pyridin-4-yl)oxy)pyridin-2-yl)-2-oxopyrrolidine-1-carboxamide]
21 | 46.4 | 115 | 118 |  |  | CCCn1cc(-c2cc(Oc3ccc(NC(=O)N4CCC(C)(C)C4=O)nc3C)ccn2)cn1 [Example 14, 3,3-dimethyl-N-(6-methyl-5-((2-(1-propyl-1H-pyrazol-4-yl)pyridin-4-yl)oxy)pyridin-2-yl)-2-oxopyrrolidine-1-carboxamide]
22 | 1120 | 1990 | 1920 |  |  | Cc1nc(NC(=O)N2CCC(C)(C)C2=O)ccc1Oc1ccnc(NC(=O)C2CCN(C)CC2)c1 [Example 25, N-(4-((6-(3,3-dimethyl-2-oxopyrrolidine-1-carboxamido)-2-methylpyridin-3-yl)oxy)pyridin-2-yl)-1-methylpiperidine-4-carboxamide]
23 | 72.5 | 203 | 222 |  |  | COCCn1cc(-c2cc(Oc3ccc(NC(=O)N4CCC(C)(C)C4=O)nc3C)ccn2)cn1 [Example 7, N-(5-((2-(1-(2-methoxyethyl)-1H-pyrazol-4-yl)pyridin-4-yl)oxy)-6-methylpyridin-2-yl)-3,3-dimethyl-2-oxopyrrolidine-1-carboxamide]
24 | 98.3 | 1160 | 1380 |  |  | CCCC1(CCC)CCN(C(=O)Nc2ccc(Oc3ccnc(-c4cnn(C)c4)c3)c(C)n2)C1=O [Example 30, N-(6-methyl-5-((2-(1-methyl-1H-pyrazol-4-yl)pyridin-4-yl)oxy)pyridin-2-yl)-2-oxo-3,3-dipropylpyrrolidine-1-carboxamide]
25 | 230 |  |  |  |  | Cc1nc(NC(=O)N2CCC(C)(C)C2=O)ccc1Oc1ccnc(-c2cnn(CC(C)(C)O)c2)c1 [Example 16, N-(5-((2-(1-(2-hydroxy-2-methylpropyl)-1H-pyrazol-4-yl)pyridin-4-yl)oxy)-6-methylpyridin-2-yl)-3,3-dimethyl-2-oxopyrrolidine-1-carboxamide]
26 | 71.7 | 134 | 158 |  |  | Cc1nc(NC(=O)N2CCC(C)(C)C2=O)ccc1Oc1ccnc(-c2cnn([C@H]3CCOC3)c2)c1 [Example 12, (S)-3,3-dimethyl-N-(6-methyl-5-((2-(1-(tetrahydrofuran-3-yl)-1H-pyrazol-4-yl)pyridin-4-yl)oxy)pyridin-2-yl)-2-oxopyrrolidine-1-carboxamide]
